Measurements taken from patent publication US10030007B2, “Quinazolin-THF-amines as PDE1 inhibitors” (H. Lundbeck A/S, priority 2013, dated 2018).

Assays:
Format in all cases: biochemical
Details in all cases: 15 nM tritium labelled cAMP, 1 h at room temperature, SPA beads
PDE1A = PDE1A (Homo sapiens, UniProt P54750); assay: PDE1 inhibition assay (SPA), PDE1A
Procedure: (§1) PDE1A, PDE1B and PDE1C assays were performed as follows: the assays was performed in 60 μL samples containing a fixed amount of the PDE1 enzyml (sufficient to convert 20-25% of the cyclic nucleotide substrate), a buffer (50 mM HEPES pH 7.6; 10 mM MgCl2; 0.02% Tween20), 0.1 mg/ml BSA, 15 nM tritium labelled cAMP and varying amounts of inhibitors. Reactions were initiated by addition of the cyclic nucleotide substrate, and reactions were allowed to proceed for 1 h at room temperature before being terminated through mixing with 20 μL (0.2 mg) yttrium silicate SPA beads (PerkinElmer). The beads were allowed to settle for 1 h in the dark before the plates were counted in a Wallac 1450 Microbeta counter. The measured signals were converted to activity relative to an uninhibited control (100%) and IC50 values were calculated using XlFit (model 205, IDBS).

PDE1B = PDE1B (Homo sapiens, UniProt Q01064); assay: PDE1 inhibition assay (SPA), PDE1B
Procedure: as §1

PDE1C = PDE1C (Homo sapiens, UniProt Q14123); assay: PDE1 inhibition assay (SPA), PDE1C
Procedure: as §1

Sequence of PDE1C (Q14123 whole entry): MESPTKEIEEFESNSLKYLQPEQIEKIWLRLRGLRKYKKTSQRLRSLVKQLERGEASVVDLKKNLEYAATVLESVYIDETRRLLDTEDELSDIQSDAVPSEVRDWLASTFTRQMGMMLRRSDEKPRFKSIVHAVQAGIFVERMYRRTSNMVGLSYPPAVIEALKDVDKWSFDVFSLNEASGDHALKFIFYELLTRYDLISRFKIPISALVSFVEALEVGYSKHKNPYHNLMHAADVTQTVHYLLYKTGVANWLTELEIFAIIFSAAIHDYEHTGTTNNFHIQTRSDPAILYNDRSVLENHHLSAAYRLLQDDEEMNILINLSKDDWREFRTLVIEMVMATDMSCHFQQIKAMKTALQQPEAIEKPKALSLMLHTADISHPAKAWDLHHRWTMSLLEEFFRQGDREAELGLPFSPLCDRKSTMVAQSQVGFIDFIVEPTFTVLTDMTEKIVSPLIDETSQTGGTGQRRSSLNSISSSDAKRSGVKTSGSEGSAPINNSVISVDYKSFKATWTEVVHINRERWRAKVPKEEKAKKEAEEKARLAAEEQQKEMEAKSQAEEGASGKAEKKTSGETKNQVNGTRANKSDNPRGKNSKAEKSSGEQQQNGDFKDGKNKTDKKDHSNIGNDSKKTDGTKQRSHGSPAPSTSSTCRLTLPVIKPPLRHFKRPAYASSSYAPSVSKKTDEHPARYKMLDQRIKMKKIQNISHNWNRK
Sequence of PDE1B (Q01064 whole entry): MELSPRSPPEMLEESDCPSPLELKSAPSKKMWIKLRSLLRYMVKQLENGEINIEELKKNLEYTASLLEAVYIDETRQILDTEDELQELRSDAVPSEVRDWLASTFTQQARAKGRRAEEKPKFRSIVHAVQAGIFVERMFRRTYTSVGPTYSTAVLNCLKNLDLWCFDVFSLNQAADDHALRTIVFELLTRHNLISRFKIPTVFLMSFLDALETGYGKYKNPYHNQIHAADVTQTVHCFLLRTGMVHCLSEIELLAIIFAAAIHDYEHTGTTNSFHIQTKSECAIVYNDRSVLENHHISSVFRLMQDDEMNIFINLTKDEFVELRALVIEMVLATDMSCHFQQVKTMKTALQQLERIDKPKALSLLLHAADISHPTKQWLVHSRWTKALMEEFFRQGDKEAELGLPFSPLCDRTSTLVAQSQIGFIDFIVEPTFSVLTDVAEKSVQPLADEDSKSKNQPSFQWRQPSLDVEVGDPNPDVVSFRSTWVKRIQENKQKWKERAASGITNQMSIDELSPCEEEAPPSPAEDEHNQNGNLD
Sequence of PDE1A (P54750 whole entry): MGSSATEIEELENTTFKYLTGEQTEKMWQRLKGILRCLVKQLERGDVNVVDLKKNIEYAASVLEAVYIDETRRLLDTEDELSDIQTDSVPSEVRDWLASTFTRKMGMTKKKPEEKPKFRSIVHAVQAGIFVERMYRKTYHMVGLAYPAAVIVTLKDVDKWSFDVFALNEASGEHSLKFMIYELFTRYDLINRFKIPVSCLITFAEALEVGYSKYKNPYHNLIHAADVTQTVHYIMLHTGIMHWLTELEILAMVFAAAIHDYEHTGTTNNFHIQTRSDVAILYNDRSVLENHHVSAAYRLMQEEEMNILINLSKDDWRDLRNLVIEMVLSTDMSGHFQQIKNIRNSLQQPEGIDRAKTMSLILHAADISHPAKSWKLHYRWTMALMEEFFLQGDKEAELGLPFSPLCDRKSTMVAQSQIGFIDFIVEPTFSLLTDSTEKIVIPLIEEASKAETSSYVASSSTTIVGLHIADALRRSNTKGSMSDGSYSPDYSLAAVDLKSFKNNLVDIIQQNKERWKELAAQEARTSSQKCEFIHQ

IC50 (PDE1A) [nM] | IC50 (PDE1B) [nM] | IC50 (PDE1C) [nM] | SMILES
2400 | 260 | 1300 | COc1ccc2c(N[C@@H]3CCO[C@H]3C3CC3)ncnc2c1OC (relative stereo) [Compound 2, trans-N-(-2-cyclopropyltetrahydrofuran-3-yl)-7,8-dimethoxyquinazolin-4-amine]
2400 | 260 | 1300 | COc1ccc2c(NC3CCOC3C3CC3)ncnc2c1OC (stereo not drawn) [Compound 25, N-(2-Cyclopropyltetrahydrofuran-3-yl)-7,8-dimethoxyquinazolin-4-amine]
